Assays:
[1] = biological target: T1, Axl (h) (Homo sapiens, UniProt P30530); experiment: Enzymatic activity assay, Axl (h), [γ-33P]-ATP filter assay; format: biochemical; details: 10 μM ATP, 40 min room temperature; read-out: Inhibitory activity IC50 Axl(h)
T1 sequence (P30530 26-894): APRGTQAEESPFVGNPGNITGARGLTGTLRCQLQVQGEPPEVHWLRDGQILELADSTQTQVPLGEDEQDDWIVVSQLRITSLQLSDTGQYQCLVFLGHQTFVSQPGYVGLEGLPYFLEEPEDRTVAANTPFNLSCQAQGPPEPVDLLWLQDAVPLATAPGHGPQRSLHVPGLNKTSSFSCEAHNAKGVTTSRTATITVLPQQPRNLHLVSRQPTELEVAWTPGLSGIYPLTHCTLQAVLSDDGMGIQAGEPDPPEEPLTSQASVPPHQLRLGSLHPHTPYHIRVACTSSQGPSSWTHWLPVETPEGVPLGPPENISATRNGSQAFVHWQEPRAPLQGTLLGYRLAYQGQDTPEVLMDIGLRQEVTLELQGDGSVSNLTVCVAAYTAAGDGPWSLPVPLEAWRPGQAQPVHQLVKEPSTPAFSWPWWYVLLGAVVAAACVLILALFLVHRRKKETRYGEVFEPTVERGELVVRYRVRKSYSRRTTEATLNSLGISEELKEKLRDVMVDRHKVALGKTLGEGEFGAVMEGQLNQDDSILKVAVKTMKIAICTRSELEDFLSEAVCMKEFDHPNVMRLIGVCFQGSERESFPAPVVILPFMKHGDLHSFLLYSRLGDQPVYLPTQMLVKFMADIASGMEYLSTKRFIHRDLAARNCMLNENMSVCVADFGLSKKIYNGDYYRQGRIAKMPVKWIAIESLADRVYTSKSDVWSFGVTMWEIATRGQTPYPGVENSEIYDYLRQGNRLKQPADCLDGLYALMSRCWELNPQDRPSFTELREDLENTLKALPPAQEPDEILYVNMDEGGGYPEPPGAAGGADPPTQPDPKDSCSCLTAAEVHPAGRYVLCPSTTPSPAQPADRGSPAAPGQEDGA
Procedure: (§1) Compounds were each dissolved in 100% DMSO to prepare stock solutions with a maximum concentration of 500 μM.
(§2) Compound working solutions (50×) were prepared by diluting a compound stock solution to a final concentration of 500, 150, 50, 15, 5, 1.5, 0.5, 0.15 and 0.05 μM.
An enzyme solution with a final concentration of 1.7 nM was prepared by dissolving Axl (h) enzyme in a mixture of 8 mM MOPS (pH 7.0), 0.2 mM EDTA and 250 μM KKSRGDYMTMQIG. A Mg/ATP mixture of 10 mM magnesium acetate and 10 μM [γ-^33P]-ATP was used to activate the enzymatic reaction.
(§3) A compound working solution was added to a 384-well plate, with final concentrations of 10,000, 3,000, 1,000, 300, 100, 30, 10, 3 and 1 nM, and then different enzymatic reaction solutions prepared according to the above conditions were added. The reaction solutions were incubated at room temperature for 40 min, and then 0.5% phosphoric acid solutions were added to terminate the reaction. 10 μL of the reaction solution was added dropwise to P30 filter paper, washed 4 times with a 0.425% phosphoric acid solution and once with methanol, and then placed in a scintillation counter for detection. Gray analysis was performed on the results with Image J software, and IC50 values were calculated with GraphPad 5.0 software.

[2] = biological target: T2, Mer (h) (Homo sapiens, UniProt Q12866); experiment: Enzymatic activity assay, Mer (h), [γ-33P]-ATP filter assay; format: biochemical; details: 10 μM ATP, 40 min room temperature; read-out: Inhibitory activity IC50 Mer(h)
T2 sequence (Q12866 21-999): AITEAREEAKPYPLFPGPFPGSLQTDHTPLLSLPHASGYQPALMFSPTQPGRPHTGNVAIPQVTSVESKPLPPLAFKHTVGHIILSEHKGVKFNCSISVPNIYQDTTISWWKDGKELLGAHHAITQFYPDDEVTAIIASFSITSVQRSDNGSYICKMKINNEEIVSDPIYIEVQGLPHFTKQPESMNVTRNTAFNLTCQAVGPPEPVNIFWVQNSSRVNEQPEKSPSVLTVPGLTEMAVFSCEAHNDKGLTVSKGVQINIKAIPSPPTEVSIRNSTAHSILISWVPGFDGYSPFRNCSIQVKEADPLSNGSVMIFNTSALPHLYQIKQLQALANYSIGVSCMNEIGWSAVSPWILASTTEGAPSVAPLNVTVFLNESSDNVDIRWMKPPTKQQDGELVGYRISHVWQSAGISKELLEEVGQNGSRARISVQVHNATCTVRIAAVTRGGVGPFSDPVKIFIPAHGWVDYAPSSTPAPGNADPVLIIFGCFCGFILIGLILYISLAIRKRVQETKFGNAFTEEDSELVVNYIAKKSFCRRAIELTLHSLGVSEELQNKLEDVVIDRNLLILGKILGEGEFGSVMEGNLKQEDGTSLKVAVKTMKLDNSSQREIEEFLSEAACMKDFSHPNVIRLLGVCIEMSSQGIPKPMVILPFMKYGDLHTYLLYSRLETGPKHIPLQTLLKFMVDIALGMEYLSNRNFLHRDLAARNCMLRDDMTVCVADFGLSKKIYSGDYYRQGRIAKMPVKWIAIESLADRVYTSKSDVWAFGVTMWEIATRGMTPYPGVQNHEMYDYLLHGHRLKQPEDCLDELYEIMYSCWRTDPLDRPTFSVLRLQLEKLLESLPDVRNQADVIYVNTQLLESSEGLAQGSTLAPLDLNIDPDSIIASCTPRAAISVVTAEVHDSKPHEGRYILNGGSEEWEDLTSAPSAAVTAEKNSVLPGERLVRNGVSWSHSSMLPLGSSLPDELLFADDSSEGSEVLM
Procedure: as §1, §2
An enzyme solution with a final concentration of 3.1 nM was prepared by dissolving Mer (h) enzyme in a mixture of 8 mM MOPS (pH 7.0), 0.2 mM EDTA, 30 mM NaCl and 250 μM GGMEDIYFEFMGGKKK. A Mg/ATP mixture of 10 mM magnesium acetate and 10 μM [γ-^33P]-ATP was used to activate the enzymatic reaction.
as §3

Row | Structure (SMILES) | IC50 [1] [nM] | IC50 [2] [nM]
1 | COc1cc2nccc(Oc3cnc(NC(=O)c4cn(CC5CCOCC5)cc(-c5ccc(C)cc5)c4=O)nc3)c2cc1OC [Compound 4, N-(5-((6,7-dimethoxyquinolin-4-yl)oxy)pyrimidin-2-yl)-4-oxo-1-((tetrahydro-2H-pyran-4-yl)methyl)-5-(p-tolyl)-1,4-dihydropyridin-3-carboxamide] | 9 | 5
2 | COc1cc2nccc(Oc3ccc(NC(=O)c4cn(CC5CCS(=O)(=O)CC5)cc(-c5ccc(C)cc5)c4=O)nc3)c2cc1OC [Compound 7, N-(5-((6,7-dimethoxyquinolin-4-yl)oxy)pyridin-2-yl)-1-((1,1-dioxotetrahydro-2H-thiopyran-4-yl)methyl)-4-oxo-5-(p-tolyl)-1,4-dihydropyridin-3-carboxamide] | 20 | 50
3 | COc1cc2nccc(Oc3ccc(NC(=O)c4cn(CC5CCSCC5)cc(-c5ccc(C)cc5)c4=O)nc3)c2cc1OC [Compound 9, N-(5-((6,7-dimethoxyquinolin-4-yl)oxy)pyridin-2-yl)-4-oxo-1-((tetrahydro-2H-thiopyran-4-yl)methyl)-5-(p-tolyl)-1,4-dihydropyridin-3-carboxamide] | 35 | 5
4 | COc1cc2nccc(Oc3ccc(NC(=O)c4cc(-c5ccc(C)cc5)cn(CC5CCOCC5)c4=O)nc3)c2cc1OC [Compound 13, N-(5-((6,7-dimethoxyquinolin-4-yl)oxy)pyridin 2yl)-2-oxo-1-((tetrahydro-2H-pyran-4-yl)methyl)-5-(p-tolyl)-1,2-dihydropyridin-3-carboxamide] | 23 | 8
5 | COc1cc2nccc(Oc3cnc(NC(=O)c4nn(C5CCOCC5)cc(-c5ccc(C)cc5)c4=O)nc3)c2cc1OC [Compound 18, N-(5-((6,7-dimethoxyquinolin-4-yl)oxy)pyrimidin-2-yl)-4-oxo-1-(tetrahydro-2H-pyran-4-yl)-5-(p-tolyl)-1,4-dihydropyridazin-3-carboxamide] | 7 | 5
6 | COc1cc2nccc(Oc3ccc(NC(=O)c4cn(C5CCOCC5)cc(-c5ccc(C)cc5)c4=O)nc3)c2cc1OC [Compound 19, N-(5-((6,7-dimethoxyquinolin-4-yl)oxy)pyridin-2-yl)-4-oxo-1-(tetrahydro-2H-pyran-4-yl)-5-(p-tolyl)-1,4-dihydropyridin-3-carboxamide] | 12 | 4
7 | COc1cc2nccc(Oc3ccc(NC(=O)c4cn(CC5CCOCC5)cc(-c5ccc(C)cc5)c4=O)nn3)c2cc1OC [Compound 24, N-(6-((6,7-dimethoxyquinolin-4-yl)oxy)pyridazin-3-yl)-4-oxo-1-((tetrahydro-2H-pyran-4-yl)methyl)-5-(p-tolyl)-1,4-dihydropyridin-3-carboxamide] | 9 | 34
8 | COc1cc2nccc(Oc3ccc(NC(=O)c4cn(CC5CCOCC5)c5ccccc5c4=O)nc3)c2cc1OC [Compound 25, N-(5-((6,7-dimethoxyquinolin-4-yl)oxy)pyridin-2-yl)-4-oxo-1-((tetrahydro-2H-pyran-4-yl)methyl)-1,4-dihydroquinolin-3-carboxamide] | 11 | 15
9 | COc1cc2nccc(Oc3ccc(NC(=O)c4cc(CC5CCOCC5)cn(-c5ccc(C)cc5)c4=O)nc3)c2cc1OC [Compound 26, N-(5-((6,7-dimethoxyquinolin-4-yl)oxy)pyridin-2-yl)-oxo-5-((tetrahydro-2H-pyran-4-yl)methyl)-1-(p-tolyl)-1,2-dihydropyridin-3-carboxamide] | 20 | 8

Continued, values first:

Row | IC50 [1] [nM] | IC50 [2] [nM] | Structure (SMILES)
10 | 5 | 2 | COc1cc2nccc(Oc3ccc(NC(=O)c4cn(CC5CCOCC5)cc(-c5ccc(C)cc5)c4=O)nc3)c2cc1OC [Compound 1, N-(5-((6,7-dimethoxyquinolin-4-yl)oxy)pyridin-2-yl)-4-oxo-1-((tetrahydro-2H-pyran-4-yl)methyl)-5-(p-tolyl)-1,4-dihydropyridin-3-carboxamide]
11 | 7 | < 1 | COc1cc2nccc(Oc3ccc(NC(=O)c4nn(CC5CCOCC5)cc(-c5ccc(C)cc5)c4=O)nc3)c2cc1OC [Compound 2, N-(5-((6,7-dimethoxyquinolin-4-yl)oxy)pyridin-2-yl)-4-oxo-1-((tetrahydro-2H-pyran-4-yl)methyl)-5-(p-tolyl)-1,4-dihydropyridazin-3-carboxamide]
12 | 6 | 73 | COc1cc2nccc(Oc3ccc(NC(=O)c4cn(CC5CC[S+]([O-])CC5)cc(-c5ccc(C)cc5)c4=O)nc3)c2cc1OC (stereo not drawn) [Compound 8, N-(5-((6,7-dimethoxyquinolin-4-yl)oxy)pyridin-2-yl)-1-((1-oxotetrahydro-2H-thiopyran-4-yl)methyl)-4-oxo-5-(p-tolyl)-1,4-dihydropyridin-3-carboxamide]
13 | 4 | 3 | COc1cc2nccc(Oc3cnc(NC(=O)c4nn(CC5CCOCC5)cc(-c5ccc(C)cc5)c4=O)nc3)c2cc1OC [Compound 16, N-(5-((6,7-dimethoxyquinolin-4-yl)oxy)pyrimidin-2-yl)-4-oxo-1-((tetrahydro-2H-pyran-4-yl)methyl)-5-(p-tolyl)-1,4-dihydropyridazin-3-carboxamide]
14 | 3 | 1 | COc1cc2nccc(Oc3ccc(NC(=O)c4nn(C5CCOCC5)cc(-c5ccc(C)cc5)c4=O)nc3)c2cc1OC [Compound 17, N-(5-((6,7-dimethoxyquinolin-4-yl)oxy)pyridin-2-yl)-4-oxo-1-(tetrahydro-2H-pyran-4-yl)-5-(p-tolyl)-1,4-dihydropyridazin-3-carboxamide]
15 | 4 | 14 | COc1cc2nccc(Oc3cnc(NC(=O)c4cn(C5CCOCC5)cc(-c5ccc(C)cc5)c4=O)nc3)c2cc1OC [Compound 20, N-(5-((6,7-dimethoxyquinolin-4-yl)oxy)pyrimidin-2-yl)-4-oxo-1-(tetrahydro-2H-pyran-4-yl)-5-(p-tolyl)-1,4-dihydropyridin-3-carboxamide]

From patent US20210177828A1, “TAM FAMILY KINASE /AND CSF1R KINASE INHIBITOR AND USE THEREOF” (Nanjing Transthera Biosciences Co., Ltd., priority 2018, published 2021)
